The source made the active and inactive calls. Rule as the data show it, for most assays here: actives have a measured EC50 and inactives only a lower limit.
Key:
[1] = NIH-3T3 fibroblast cytotoxicity, dose response, cytotoxicity control, cell-based, fluorescence, Alamar Blue, secondary assay (AID 2327); type: functional;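 also: NIH-3T3 mouse fibroblasts cultured with fluconazole at 8 µg/mL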
[2] = system: Streptococcus sp. 'group A'; experiment: Streptococcus pyogenes SK(-)GAS viability under kanamycin – luminescence, BacTiterGlo, confirmation, counter-screen for streptokinase expression inhibitor project, dose response (AID 1900); type: functional, organism-based
[3] = system: INS1; experiment: INS-1E survival protection against cytokine death – cell-based, luminescence, retest, dose response (AID 449756); type: functional; conditions: Rattus norvegicus;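 also: cell death triggered by IL-1 beta plus TNF-alpha plus IFN-gamma mixture; protective hits raise ATP signal compared with cytokine alone wells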
[4] = system: Streptococcus; experiment: GAS UMAA2166 growth inhibition – luminescence, BacTiterGlo, counter-screen for streptokinase expression inhibitor project, dose response (AID 1915); type: functional, organism-based;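 also: potency for reduction of bacterial viability or growth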
[5] = Counterscreen for AddAB inhibitors: absorbance-based bacterial cell-based high throughput dose response assay for inhibitors of bacterial viability. [Related pubchem assays (depositor defined):AID435030, AID449728, AID449731, AID488942, AID488955, AID488956]; type: functional
[6] = molecular target: T1, Serine/threonine-protein phosphatase (Candida dubliniensis (strain CD36 / CBS 7987 / NCPF 3949 / NRRLY-17841) (Yeast), UniProt B9W6M3); experiment: blockers of CaCl2-induced CDRE-lacZ signaling – S. cerevisiae, luminescence, secondary, dose response (AID 2388); type: functional, cell-based;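 also: yeast reporter cells carrying a calcineurin-responsive lacZ construct stimulated with calcium chloride; luminescent beta-galactosidase reporter signal in whole cells rather than isolated phosphatase activity; potency for inhibition where a drop in reporter signal means calcineurin blockade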
T1 sequence (B9W6M3 whole entry): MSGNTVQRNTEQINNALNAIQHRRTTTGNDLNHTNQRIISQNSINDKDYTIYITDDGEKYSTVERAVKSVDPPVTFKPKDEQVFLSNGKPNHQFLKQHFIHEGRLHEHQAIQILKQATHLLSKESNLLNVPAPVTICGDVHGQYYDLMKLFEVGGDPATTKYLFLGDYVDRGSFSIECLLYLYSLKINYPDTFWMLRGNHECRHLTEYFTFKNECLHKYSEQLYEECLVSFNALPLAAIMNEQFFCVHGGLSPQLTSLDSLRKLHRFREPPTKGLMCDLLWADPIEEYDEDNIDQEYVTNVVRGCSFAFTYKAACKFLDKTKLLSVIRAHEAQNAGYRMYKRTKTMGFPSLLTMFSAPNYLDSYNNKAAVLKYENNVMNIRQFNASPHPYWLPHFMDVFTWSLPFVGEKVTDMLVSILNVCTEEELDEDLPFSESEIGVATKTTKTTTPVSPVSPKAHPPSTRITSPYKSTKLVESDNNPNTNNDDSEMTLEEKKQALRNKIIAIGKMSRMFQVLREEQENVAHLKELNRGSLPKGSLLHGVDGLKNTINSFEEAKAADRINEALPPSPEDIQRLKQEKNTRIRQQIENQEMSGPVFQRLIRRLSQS

[7] = fluconazole-exposed Candida albicans growth modulators – fluorescence, retest, confirmation (AID 2467); type: functional, cell-based
[8] = molecular target: ATP-dependent molecular chaperone HSP82 (Candida albicans (strain WO-1) (Yeast), UniProt C4YTQ8); experiment: steroid-induced GRE reporter decrease in yeast – S. cerevisiae, luminescence, Hsp90 inhibitor project, dose response (AID 2400); type: functional, cell-based;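 also: beta-galactosidase luminescence from glucocorticoid response element reporter as proxy for Hsp90 function; inhibitor potency where signal loss means Hsp90 inhibition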
Chain of ATP-dependent molecular chaperone HSP82 (C4YTQ8 whole entry): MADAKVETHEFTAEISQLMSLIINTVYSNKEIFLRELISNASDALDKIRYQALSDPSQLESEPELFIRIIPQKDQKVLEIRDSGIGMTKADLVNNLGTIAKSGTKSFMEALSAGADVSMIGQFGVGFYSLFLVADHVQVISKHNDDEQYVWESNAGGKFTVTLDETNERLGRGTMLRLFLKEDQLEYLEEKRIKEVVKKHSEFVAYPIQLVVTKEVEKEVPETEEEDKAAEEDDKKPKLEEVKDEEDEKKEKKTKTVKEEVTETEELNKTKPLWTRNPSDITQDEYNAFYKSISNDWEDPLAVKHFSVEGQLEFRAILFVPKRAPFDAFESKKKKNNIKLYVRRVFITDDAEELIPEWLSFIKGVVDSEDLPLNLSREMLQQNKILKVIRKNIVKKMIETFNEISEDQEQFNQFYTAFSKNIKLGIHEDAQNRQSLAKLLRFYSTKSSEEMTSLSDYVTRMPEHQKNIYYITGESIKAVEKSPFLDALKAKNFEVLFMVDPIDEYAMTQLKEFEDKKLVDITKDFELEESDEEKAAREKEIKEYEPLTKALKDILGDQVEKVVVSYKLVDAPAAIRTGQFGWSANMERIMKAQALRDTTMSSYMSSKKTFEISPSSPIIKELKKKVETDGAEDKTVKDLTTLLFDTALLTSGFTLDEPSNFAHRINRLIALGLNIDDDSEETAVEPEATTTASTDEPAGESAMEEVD

[9] = Trypanosoma cruzi growth suppression in host cells – NIH3T3 host cells, beta-gal luminescence, confirmation (AID 2044); type: functional, cell-based;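 also: intracellular parasites grown in NIH/3T3 mouse fibroblasts as host cells; luminescent beta-galactosidase reporter signal from transgenic T. cruzi replicating inside host cells; inhibitors lower the luminescence signal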
[10] = molecular target: T2, Replicative DNA helicase DnaB (Mycobacterium tuberculosis, UniProt P9WMR3); experiment: DnaB intein splicing inhibitors, dose response, biochemical, cell-free fluorescence (AID 449749); type: functional
T2 sequence (P9WMR3 whole entry): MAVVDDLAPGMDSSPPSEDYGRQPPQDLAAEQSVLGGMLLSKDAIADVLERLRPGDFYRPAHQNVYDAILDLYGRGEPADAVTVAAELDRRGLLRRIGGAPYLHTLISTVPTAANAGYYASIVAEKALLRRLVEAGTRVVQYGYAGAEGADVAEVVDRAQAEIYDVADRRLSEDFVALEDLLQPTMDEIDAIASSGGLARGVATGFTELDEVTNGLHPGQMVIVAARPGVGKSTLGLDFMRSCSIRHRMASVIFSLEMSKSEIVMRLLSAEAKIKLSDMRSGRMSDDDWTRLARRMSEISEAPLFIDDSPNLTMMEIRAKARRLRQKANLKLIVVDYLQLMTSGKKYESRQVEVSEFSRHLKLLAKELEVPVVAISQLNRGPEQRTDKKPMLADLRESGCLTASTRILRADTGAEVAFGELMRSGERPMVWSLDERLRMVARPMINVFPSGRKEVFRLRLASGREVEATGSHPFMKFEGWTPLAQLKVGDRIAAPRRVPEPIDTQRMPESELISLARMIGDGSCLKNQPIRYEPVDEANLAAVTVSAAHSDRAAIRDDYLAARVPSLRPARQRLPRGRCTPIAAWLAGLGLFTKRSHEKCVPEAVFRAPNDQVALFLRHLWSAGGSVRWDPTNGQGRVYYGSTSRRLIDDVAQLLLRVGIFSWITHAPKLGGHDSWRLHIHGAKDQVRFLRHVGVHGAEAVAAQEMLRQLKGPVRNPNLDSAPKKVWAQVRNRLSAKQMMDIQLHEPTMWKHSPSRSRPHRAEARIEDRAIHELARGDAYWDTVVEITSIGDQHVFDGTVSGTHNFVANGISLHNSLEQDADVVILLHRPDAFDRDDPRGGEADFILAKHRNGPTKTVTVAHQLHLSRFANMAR

SMILES	EC50 [1]	EC50 [2]	AC50 [3]	EC50 [4]	IC50 [5]	EC50 [6]	EC50 [7]	EC50 [8]	EC50 [9]	AC50 [10]
CCCCC(=O)NC(c1ccco1)c1cc(Cl)c2cccnc2c1O (stereo not given)	25 µM (active)	4 µM (active)	2.74 µM (active)	8.22 µM (active)	> 119 µM (inactive)	> 180 µM (inactive)	0.537 µM (active)	> 160 µM (inactive)	1.91 µM (active)	–
CCCCC(=O)NC(c1ccc(Cl)cc1)c1ccc2cccnc2c1O (stereo not given)	16.6 µM (active)	–	0.476 µM (active)	–	> 119 µM (inactive)	24.8 µM (active)	0.413 µM (active)	29.1 µM (active)	0.268 µM (active)	–
COc1ccc2noc3c2c1C(=O)c1ccccc1-3	–	–	–	–	–	–	–	–	–	1.18 µM (inconclusive)
CCc1ccc2c(c1)C(NC(C)=O)C(=O)N2CCN1CCOCC1 (stereo not given)	–	–	–	–	–	–	–	–	–	22.3 µM (active)
O=C(N/N=C/c1ccccc1O)/C(O)=C\C1=NC2(CCCC2)Cc2ccccc21	10.5 µM (active)	3.18 µM (active)	–	11.2 µM (active)	> 119 µM (inactive)	> 180 µM (inactive)	0.663 µM (active)	22.1 µM (active)	–	–

— ChEMBL document CHEMBL1201862, “PubChem BioAssay data set” (2004)
